According to patent US8202863B2 (Aventis Pharmaceuticals Inc., priority 2005, dated 2012):

Molecular target: T1, Hematopoietic PGD2 Synthase (Homo sapiens, UniProt O60760)
Assay: Fluorescence Polarization Assay (Assay 1)
Assay type: binding
Details: assigned
Description: (§1) The compounds of the present invention can be tested for enzymatic inhibiting activity against PGD2 Synthase according to either one of the following assays.
(§2) Assay 1: Fluorescence Polarization Assay
(§3) As described in PCT publication WO 2004/016223, Example II.

T1 sequence (O60760 whole entry): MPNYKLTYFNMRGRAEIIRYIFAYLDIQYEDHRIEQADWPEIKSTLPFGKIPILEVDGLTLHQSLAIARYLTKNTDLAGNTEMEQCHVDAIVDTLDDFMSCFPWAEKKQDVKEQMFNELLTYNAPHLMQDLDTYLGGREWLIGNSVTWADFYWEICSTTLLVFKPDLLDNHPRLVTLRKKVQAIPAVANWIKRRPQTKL

| IC50 [nM] | SMILES |
| --- | --- |
| 35 | O=C(NCCc1c[nH]cn1)c1cnc(-c2ccccc2)nc1 [Example 34, 2-Phenyl-pyrimidine-5-carboxylic acid [2-(1H-imidazol-4-yl)-ethyl]-amide] |
| 2 | O=C(NC1CCN(Cc2ncc[nH]2)CC1)c1cnc(-c2ccccc2)nc1 [Example 9] |
| 32 | O=C(NCCN1CCNC1=O)c1cnc(-c2ccccc2)nc1 [Example 33, 2-Phenyl-pyrimidine-5-carboxylic acid [2-(2-oxo-imidazolidin-1-yl)-ethyl]-amide] |
| 2 | O=C(NCCc1ccc2c(c1)OCO2)c1cnc(-c2ccccc2)nc1 [Example 82, 2-Phenyl-pyrimidine-5-carboxylic acid (2-benzo[133]dioxol-5-yl-ethyl)-amide] |
| 2.5 | O=C(Nc1ccc2c(c1)CS(=O)(=O)N2)c1cnc(-c2ccccc2)nc1 [Example 8, 2-Phenyl-pyrimidine-5-carboxylic acid (2,2-dioxo-2,3-dihydro-1H-2lamda*6*-benzo[c]isothiazol-5-yl)-amide] |
| 23 | O=C(Nc1ccc2[nH]ncc2c1)c1cnc(-c2ccccc2)nc1 [Example 83, 2-Pheny-pyrimidine-5-carboxylic acid (1H-indazol-5-yl)-amide] |

The next lines start with the molecule.

| SMILES | IC50 [nM] |
| --- | --- |
| O=C(NCc1ccc(-c2cnns2)cc1)c1cnc(-c2ccccc2)nc1 [Example 84] | 6.5 |
| O=C(Nc1ccccc1)c1cnc(C2CCCCC2)nc1 [Example 114, 2-Cyclohexyl-pyrimidine-5-carboxylic acid phenylamide] | 4960 |

Molecular target: T1, Hematopoietic PGD2 Synthase
Assay: Fluorescence Polarization Assay or EIA assay (which one not stated)
Assay type: biochemical
Details: assay not assigned in b678 (Fluorescence Polarization or EIA)
Procedure: as §1, §2, §3
Assay 2: Enzyme Immunoassay (EIA) Method
• 2. Dilute 2 μL of each above concentration of compound to 38 μL of reaction buffer in 96-well plates and mix. IV. Enzyme and Substrate Solution Preparation • 1. Preparation of 0.39 ng/μL enzyme solution (0.35 ng/μL at final after compound addition). • Mix 4 μL of 4 mg/mL human h-PGDS with 396 μL of reaction buffer (to give enzyme concentration 40 μg/mL). Add 46.8 μL of 40 μg/mL h-PGDS to 4.753 mL of reaction buffer to give a total volume of 4.8 mL • 2. Preparation of Substrate Solution (PGH2): Add 0.375 mL of 0.1 mg/mL of PGH2 to 1.625 mL acetone. V. Enzyme Reaction: • 1. Add 60 μL of enzyme solution to compound well and positive control (without compound) in U-bottom polypropylene plate on ice. • 2. Add 60 μL of reaction buffer and 6.6 μL of 5% DMSO in reaction buffer into negative control wells in the plate. • 3. Add 6.6 μL of diluted compound in reaction buffer to the compound wells and mix. • 4. Add 6.6 μL of 5% DMSO in reaction buffer to the positive control well. • 5. Incubate the plate in ice for at least 30 min. • 6. Add 20 μL of substrate (PGH2) solution to compound, negative and positive control wells in the U-bottom 96 well plate on ice. • 7. Dry the plate in cold room for about 25-28 min. • 8. Pipette 45 μL of enzyme solution (above) into 96-wells with dried PGH2 and mix 3 times. Incubate on the ice for 1 min. • 9. Add 45 μL of FeCl2 solution into each wells and mix. • 10. Add 90 μL of MOX solution and mix. • 11. Incubate for 30 min at 60° C. • 12. Dilute the samples 2500× with EIA buffer. VI. EIA assay • Perform the assay according to the procedure in EIA kit provided by Cayman. Total PGD2 levels (pg/mL) were determined in the samples by EIA kits (Caymen Chemical, Catalog No. 500151) Calculate amount of PGD2 as below • Calculated % Positive control according to the equation below; % Positive control=(Compound value−Negative control)/(Positive value-Negative control value)×100. % Positive control=(Compound value-Negative control)×100(Positive Value-Negative Control Value) • Compound value=PGD2 levels (pg/mL) obtained from the standard curve in EIA assay for the samples with compound • Negative control value=PGD2 levels (pg/mL) obtained from the standard curve in EIA assay for the samples without enzyme • Positive control value=PGD2 levels (pg/mL) obtained from the standard curve in EIA assay for the samples with enzyme but without compound • IC50s are determined by excel fit to get the x value when y=½Ymax using 4 parameter logistic model for the IC50 curves. Results

| IC50 [nM] | SMILES |
| --- | --- |
| 12 | O=C(NCc1ccc(N2CCOCC2)cc1)c1cnc(-c2ccccc2)nc1 [Example 87, 2-Pheny-pyrimidine-5-carboxylic acid 4-morpholin-4-ylbenzylamide] |
| 7 | O=C(NCc1ccc2occc2c1)c1cnc(-c2ccccc2)nc1 [Example 90, 2-Pheny-pyrimidine-5-carboxylic acid (benzofuran-5-ylmethyl)-amide] |
| 16 | NC(=O)c1ccc(CNC(=O)c2cnc(-c3ccccc3)nc2)cc1 [Example 92, 2-Pheny-pyrimidine-5-carboxylic acid 4-carbamoyl-benzylamide] |
| 15 | O=C(Nc1cc[nH]c(=O)n1)c1cnc(-c2ccccc2)nc1 [Example 29, 2-Phenyl-pyrimidine-5-carboxylic acid (2-oxo-1,2-dihydro-pyrimidin-4-yl)-amide] |
| 18 | O=C(Nc1ccc2nc(CCN3CCCC3)oc2c1)c1cnc(-c2ccccc2)nc1 [Example 11, 2-Phenyl-pyrimidine-5-carboxylic acid [2-(2-pyrrolidin-1-yl-ethyl)-benzooxazol-6-yl]-amide] |

The remaining lines, values behind:

| SMILES | IC50 [nM] |
| --- | --- |
| Cc1nc(-c2ncc(C(=O)NC3CCOCC3)cn2)no1 [Example 77, 2-(5-Methyl-[1,2,4]oxadiazole-3-yl)-pyrimidine-5-carboxylic acid (tetrahydro-pyran-4-yl)-amide] | 514 |
| O=C(NCc1cccc(S(=O)(=O)NCCc2c[nH]cn2)c1)c1cnc(-c2cccc(F)c2)nc1 [Example 60, 2-(3-Fluoro-phenyl)-pyrimidine-5-carboxylic acid 3-[2-(1H-imidazol-4-yl)-ethylsulfamoyl]-benzylamide] | 61 |
| CCOP(=O)(Cc1ccc(NC(=O)c2cnc(-c3ccccc3)nc2)cc1)OCC [Example 98] | 38 |
| CCOP(=O)(OCC)C(NC(=O)c1cnc(-c2ccccc2)nc1)c1ccccc1 (stereo not drawn) [Example 101, {Phenyl-[(2-phenyl-pyrimidine-5-carbonyl)-amino]-methyl)-phosphonic acid diethyl ester] | 48 |
| CCOP(=O)(CCCCNC(=O)c1cnc(-c2ccccc2)nc1)OCC [Example 99, {4-[(2-Phenyl-pyrimidine-5-carbonyl)-amino]-butyl)-phosphonic acid diethyl ester] | 23.5 |

System: PGDS
Assay: not given
Details: literature report; cited from earlier work

| SMILES | PGDS inhibition |
| --- | --- |
| c1ccc(C(OC2CCN(CCCc3nn[nH]n3)CC2)c2ccccc2)cc1 [HQL-79] | weak PGDS inhibitor |

System: guinea pig
Assay: not given
Details: guinea pig model; cited from earlier work

| SMILES | antiasthmatic effect |
| --- | --- |
| c1ccc(C(OC2CCN(CCCc3nn[nH]n3)CC2)c2ccccc2)cc1 [HQL-79] | antiasthmatic |

System: rat
Assay: not given
Details: rat model; cited from earlier work

| SMILES | antiasthmatic effect |
| --- | --- |
| c1ccc(C(OC2CCN(CCCc3nn[nH]n3)CC2)c2ccccc2)cc1 [HQL-79] | antiasthmatic |
